Patent US20190137505A1 (THE ARIZONA BOARD OF REGENTS ON BEHALF OF THE UNIVERSITY OF …, priority 2015, published 2019)

Molecular target: T1, glu-Pg (Homo sapiens, UniProt P00747)
T1 construct: Glu-Pg, uPA, tPA, fibrinogen, and chromogenic substrate for Pn were purchased from Molecular Innovations (Novi, Mich.); purchased Molecular Innovations (Novi, Mich.)
Assay: Reaction of MG-modified Pg with activating enzymes (STK, tPA, uPA), SDS-PAGE and silver staining
Format: biochemical
Settings: for Pn heavy and light chain bands versus unmodified gel: MG-modified Pg, higher concentration of MG, up to 90 minutes
Method: Physiologically relevant concentrations (Chaplen et al., 1998, Ahmed et al., 2002) of MG were utilized for all LC-MS/MS, silver stain and enzyme inhibition analyses of Pg. glu-Pg (10 μg) was incubated with MG (1-500 μM) at 37° C. for 24 Hrs. Samples for STK assay were further processed before being resolved on a 12% SDS-PAGE gel following removal from 37° C. oven.
Upon removal from the 37° C. oven, Pg was buffer exchanged in a 3-kDa spin-filter (Amicon YM-3; Millipore)) to ensure the removal of MG from the sample. Following centrifugation, the volume of each sample was brought to 150 μL, and divided into five 30 μL samples for different incubations. STK (3U), tPA (100 nM) or uPA (100 nM) was used per sample. STK, tPA or uPA was incubated with Pg for 0, 5, 15, 30, 60, or 90 min. At the conclusion of the enzyme incubation, samples were denatured with 5% BME and heated for 5 minutes at 100° C. on a heat block prior to being resolved on a 12% SDS-PAGE gel.
Gels were stained using a modified version of the method from (Blum et al., 1987). Gel was fixed overnight in a solution of 50% MeOH, 12% glacial acetic acid, and 0.0185% formaldehyde. The gel was washed 2×20 min with 50% EtOH followed by 20 minutes with 30% EtOH. The gel was subjected to a pretreatment solution of 0.2 mg/ml of sodium thiosulfate (Na2S2O3) for 1 minute and was rinsed 3×20 sec with MilliQ H2O. […] Following two 20-second MilliQ H2O washes, the gel was immediately developed with a solution of 60 mg/ml Na2CO3, 4 μg/ml sodium thiosulfate, and 0.0185% formaldehyde until protein bands were visible. Upon acceptable staining progression, the gel was rinsed twice for 2 min with MilliQ H2O before the reaction was stopped with a solution of 50% MeOH and 12% glacial acetic acid. Gel was washed and stored in 50% MeOH. Gel was imaged with a ChemiDoc XRS System (BioRad).

T1 sequence (P00747 20-810 limits assumed): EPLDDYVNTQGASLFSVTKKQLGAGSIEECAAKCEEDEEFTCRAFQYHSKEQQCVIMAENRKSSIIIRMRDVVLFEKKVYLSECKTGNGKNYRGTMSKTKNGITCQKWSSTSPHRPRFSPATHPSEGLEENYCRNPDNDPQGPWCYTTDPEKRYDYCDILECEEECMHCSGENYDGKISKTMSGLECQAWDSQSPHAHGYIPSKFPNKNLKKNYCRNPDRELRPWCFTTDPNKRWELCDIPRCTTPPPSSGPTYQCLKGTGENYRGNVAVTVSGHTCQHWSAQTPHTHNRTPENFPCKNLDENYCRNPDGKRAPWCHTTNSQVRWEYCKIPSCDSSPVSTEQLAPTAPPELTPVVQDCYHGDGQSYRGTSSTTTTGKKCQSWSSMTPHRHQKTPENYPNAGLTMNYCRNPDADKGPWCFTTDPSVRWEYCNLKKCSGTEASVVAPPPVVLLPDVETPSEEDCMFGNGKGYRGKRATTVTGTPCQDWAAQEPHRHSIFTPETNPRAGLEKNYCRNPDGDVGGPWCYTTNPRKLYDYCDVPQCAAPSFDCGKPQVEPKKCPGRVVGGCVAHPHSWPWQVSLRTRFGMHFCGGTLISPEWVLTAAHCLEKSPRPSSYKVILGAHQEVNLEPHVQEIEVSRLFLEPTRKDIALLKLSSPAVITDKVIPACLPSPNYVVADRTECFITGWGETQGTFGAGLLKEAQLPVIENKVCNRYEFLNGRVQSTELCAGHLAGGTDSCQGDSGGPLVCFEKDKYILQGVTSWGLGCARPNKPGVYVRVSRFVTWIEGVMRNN

**Q.** Which “Activation of Pg by STK (cleavage products on silver-stained gel)” value (24-hr 100 μM MG-modified glu-Pg, STK 0 to 60 min) does the source give for CC(=O)C=O [MG, Methylglyoxal] here?
**A.** inhibited

**Q.** And the “Pn heavy and light chain bands versus unmodified gel” value (tPA)?
**A.** lesser amounts

**Q.** And the “Pn heavy and light chain bands versus unmodified gel” value (uPA)?
**A.** lesser amounts
